Assay results: article PMC6508677, “Identification of druggable small molecule antagonists of the Plasmodium falciparum hexose transporter PfHT and assessment of ligand access to the glucose permeation pathway via FLAG-mediated protein engineering” (PLoS ONE, 2019)
Where “and” joins values, the source holds several entries; their conditions need not be identical. Identical values can stand only once. Like-named read-outs stand apart in the source and are kept apart here.

How the values were obtained:
FTPfHT = biological target: T1, FTPfHT (Plasmodium falciparum, UniProt Q7KWJ5); assay: [3H]-D-glucose specific uptake into FTPfHT-containing liposomes; type: biochemical; details: for D-Glc - L-Glc Uptake, single experiments / D-Glc - L-Glc Uptake, Ave: liposomes; for D-Glc - L-Glc Uptake, Ave: average of Expt 1-3
T1 sequence (Q7KWJ5 1-504): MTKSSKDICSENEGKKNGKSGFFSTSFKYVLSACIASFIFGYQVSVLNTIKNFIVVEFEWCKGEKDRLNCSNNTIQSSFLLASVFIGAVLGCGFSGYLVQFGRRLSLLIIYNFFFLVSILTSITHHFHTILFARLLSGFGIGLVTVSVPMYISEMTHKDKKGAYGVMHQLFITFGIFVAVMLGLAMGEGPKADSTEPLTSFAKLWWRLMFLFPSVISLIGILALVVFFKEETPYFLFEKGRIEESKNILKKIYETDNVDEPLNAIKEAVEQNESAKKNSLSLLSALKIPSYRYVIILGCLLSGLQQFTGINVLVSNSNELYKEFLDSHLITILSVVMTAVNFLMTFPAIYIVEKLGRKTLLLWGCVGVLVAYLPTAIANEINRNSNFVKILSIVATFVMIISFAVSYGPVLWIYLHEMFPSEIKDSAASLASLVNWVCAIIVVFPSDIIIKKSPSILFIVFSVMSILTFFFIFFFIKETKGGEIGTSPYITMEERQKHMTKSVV
Excerpt: SalI and NotI restriction sites were introduced to the 5’ and 3’ ends, respectively, of FTPfHT cDNA via PCR and then this construct was placed into the multiple cloning site of the pACMV-tetO vector [25]. Stable tetracycline-inducible HEK293S GnTI cell lines expressing FTPfHT were generated using the same protocol previously described for FTGLUT4 [26]. FTPfHT protein was solubilized from FTPfHT/HEK293S GnTI cell pellets with lauryl maltose neopentyl glycol (LMNG) detergent and purified using M2 anti-FLAG affinity gel (Sigma) as described in [27]. The FLAG tag was cleaved using tobacco etch virus (TEV) protease (plasmid purchased from Addgene, Cambridge, MA) at a ratio of 1:20 TEV/PfHT overnight at 4°C in the presence of 1 mM DTT. Based on SDS-PAGE and Blue BANDit protein stain (Amresco, Solon, OH), PfHT protein after FLAG elution was ~95% pure.
Liposomes containing PfHT were made according to Hresko et al.. Briefly, purified PfHT protein in LMNG micelles described above were mixed with Triton X-100 destabilized eggPC/POPA/POPE (70:15:15) large unilamellar vesicles (lipid to protein ratio of 100–125:1 (w/w)). By slowly removing the detergents with Amberlite XAD-2 beads (Supelco Analytical, Bellefonte, PA), PfHT protein spontaneously inserts into the liposomes. After removal of the beads, liposomes were collected by ultracentrifugation, resuspended in buffer, and flash-frozen with liquid nitrogen. Frozen liposomes containing purified PfHT protein were thawed at room temperature followed by extrusion through a 200-nm polycarbonate filter to create liposomes of uniform size. Uptake was started by adding [^3H]-D-glucose (1 μCi/ml, 200 μM cold D-glucose) to PfHT proteoliposomes at room temperature. Transport was stopped at different times with 5 ml of ice-cold quench buffer (50 mM potassium phosphate, 130 mM KCl, pH 7.4) and then filtered by vacuum on a 0.2-μm mixed cellulose ester filter (Advantec, Durham, NC). Filters were subsequently washed with an additional 10 ml of quench buffer. Scintillation fluid (Filter Count, PerkinElmer, Waltham, MA) was added to the filters and the radioactivity counted. [^3H]-L-glucose (1 μCi/ml, 200 μM cold L-glucose) was used to determine nonspecific transport. Specific uptake was calculated by subtracting nonspecific [^3H]-L-glucose from [^3H]-D-glucose uptake. Uptake was normalized to the amount of transporter per reaction, determined by analyzing aliquots of transporter-containing liposomes along with a BSA standard curve on an SDS-polyacrylamide gel stained with Blue Bandit protein stain and quantified using an Odyssey infrared imaging system (LI-COR Biosciences, Lincoln, NB). Data were fitted by least squares nonlinear regression analysis using GraphPad Prism 6.0.

PfHT = biological target: T2, PfHT (Plasmodium falciparum, UniProt Q7KWJ5); assay: ATB-BMPA photolabel binding to PfHT liposomes; parameters: expressed in transfected cells
T2 sequence (Q7KWJ5 1-504): T1 sequence (Q7KWJ5 1-504)
Description: WU-1 inhibitor was added to PfHT liposomes for 10 min at room temperature. Samples (final volume, 110 μl) were then incubated for 10 min at room temperature with biotinylated ATB-BMPA (50 μM final concentration) and then placed on ice prior to UV irradiation. Reactions were transferred to a 24-well low protein retention culture dish (Costar, Corning, NY) and then irradiated at room temperature 5 cm from a Green Spot UV lamp for 1 min (30 sec of light followed by 30 sec of darkness followed by 30 sec of light). Unbound ATB-BMPA was removed using a 0.5 ml Zeba Spin Column (Thermo Scientific, Rockford, IL). Samples were analyzed by immunoblot analysis using a fluorescently labeled streptavidin (LI-COR Biosciences, Lincoln, NE). The amount of PfHT protein in each sample was quantified by SDS-PAGE stained with Blue BANDIT protein stain using a BSA standard curve. The streptavidin signal was then normalized to the amount of PfHT protein.

Question: With Cc1ccc(S(=O)(=O)CCNC(=O)c2c(-c3c(Cl)cccc3Cl)noc2C)cc1 [WU-1, 3-(2,6-dichlorophenyl)-5-methyl-N-[2-(4-methylbenzenesulfonyl)ethyl]-1,2-oxazole-4-carboxamide] as the compound, how does the IC50 (FTPfHT; D-Glc - L-Glc uptake in reconstituted liposomes, Expt 1, Expt 2, Expt 3, read-out: IC50, single experiments) read?
Answer: 12.4 µM and 18.8 µM and 8.31 µM

Question: What about the IC50 (FTPfHT; S3 Fig, read-out: IC50 for specific D-glucose uptake into FTPfHT liposomes) of the same compound?
Answer: 13.2 ± 3.1 µM

Question: What about the “D-Glc - L-Glc Uptake, single experiments” value (FTPfHT; WU-1 0.001 µM, Expt 1, Expt 2, Expt 3) of the same compound?
Answer: 36.56 pmol/µg PfHT and 54.37 pmol/µg PfHT and 37.47 pmol/µg PfHT

Question: And the “D-Glc - L-Glc Uptake, Ave” value (FTPfHT; WU-1 0.001 µM)?
Answer: 42.8 pmol/µg PfHT

Question: What about the “D-Glc - L-Glc Uptake, single experiments” value (FTPfHT; WU-1 0.625 µM, Expt 1, Expt 2, Expt 3) of the same compound?
Answer: 44.52 pmol/µg PfHT and 43.4 pmol/µg PfHT and 46.2 pmol/µg PfHT

Question: And the “D-Glc - L-Glc Uptake, Ave” value (FTPfHT; WU-1 0.625 µM)?
Answer: 44.7 pmol/µg PfHT

Question: What about the “D-Glc - L-Glc Uptake, single experiments” value (FTPfHT; WU-1 1.25 µM, Expt 1, Expt 2, Expt 3) of the same compound?
Answer: 39.01 pmol/µg PfHT and 40.61 pmol/µg PfHT and 38.03 pmol/µg PfHT

Question: What about the “D-Glc - L-Glc Uptake, Ave” value (FTPfHT; WU-1 1.25 µM) of the same compound?
Answer: 39.22 pmol/µg PfHT

Question: And the “D-Glc - L-Glc Uptake, single experiments” value (FTPfHT; WU-1 2.5 µM, Expt 1, Expt 2, Expt 3)?
Answer: 43.49 pmol/µg PfHT and 43.42 pmol/µg PfHT and 42.09 pmol/µg PfHT

Question: And the “D-Glc - L-Glc Uptake, Ave” value (FTPfHT; WU-1 2.5 µM)?
Answer: 43 pmol/µg PfHT

Question: What about the “D-Glc - L-Glc Uptake, single experiments” value (FTPfHT; WU-1 5 µM, Expt 1, Expt 2, Expt 3) of the same compound?
Answer: 32.42 pmol/µg PfHT and 25.14 pmol/µg PfHT and 27.92 pmol/µg PfHT

Question: What about the “D-Glc - L-Glc Uptake, Ave” value (FTPfHT; WU-1 5 µM) of the same compound?
Answer: 28.49 pmol/µg PfHT

Question: And the “D-Glc - L-Glc Uptake, single experiments” value (FTPfHT; WU-1 10 µM, Expt 1, Expt 2, Expt 3)?
Answer: 23.96 pmol/µg PfHT and 25.01 pmol/µg PfHT and 20.67 pmol/µg PfHT

Question: What about the “D-Glc - L-Glc Uptake, Ave” value (FTPfHT; WU-1 10 µM) of the same compound?
Answer: 23.21 pmol/µg PfHT

Question: And the “D-Glc - L-Glc Uptake, Ave” value (FTPfHT; WU-1 20 µM)?
Answer: 17.17 pmol/µg PfHT

Question: And the “D-Glc - L-Glc Uptake, single experiments” value (FTPfHT; WU-1 40 µM, Expt 1, Expt 2, Expt 3)?
Answer: 10.91 pmol/µg PfHT and 13.9 pmol/µg PfHT and 10.43 pmol/µg PfHT

Question: What about the “D-Glc - L-Glc Uptake, Ave” value (FTPfHT; WU-1 40 µM) of the same compound?
Answer: 11.75 pmol/µg PfHT

Question: And the “D-Glc - L-Glc Uptake, single experiments” value (FTPfHT; WU-1 80 µM, Expt 1, Expt 2, Expt 3)?
Answer: 3.31 pmol/µg PfHT and 3.52 pmol/µg PfHT and 3.4 pmol/µg PfHT

Question: What about the “D-Glc - L-Glc Uptake, Ave” value (FTPfHT; WU-1 80 µM) of the same compound?
Answer: 3.41 pmol/µg PfHT

Question: What about the “D-Glc - L-Glc Uptake, single experiments” value (FTPfHT; WU-1 160 µM, Expt 1, Expt 2, Expt 3) of the same compound?
Answer: 4.44 pmol/µg PfHT and 4.32 pmol/µg PfHT and 4.15 pmol/µg PfHT

Question: What about the “D-Glc - L-Glc Uptake, Ave” value (FTPfHT; WU-1 160 µM) of the same compound?
Answer: 4.3 pmol/µg PfHT

Question: And the “decrease of biotinylated ATB-BMPA photolabel binding to PfHT” value (PfHT; 10 μM WU-1, PfHT liposomes)?
Answer: ~ 60%

Question: And the “ATB-BMPA labeling, Strep signal” value (PfHT; 10µM WU-1, individual samples)?
Answer: 15.08 and 15.68 and 15.48

Question: What about the “ATB-BMPA labeling, Strep/Protein” value (PfHT; 10µM WU-1, individual samples) of the same compound?
Answer: 1.91 and 1.96 and 1.99

Question: And the “ATB-BMPA labeling, Strep/Protein normalized to 100% Control” value (PfHT; 10µM WU-1, individual samples)?
Answer: 40.83 and 41.46

Question: And the “ATB-BMPA labeling, normalized Ave” value (PfHT; 10µM WU-1, mean of 3)?
Answer: 40.69

Question: And the remaining activity at 10 µM (PfHT; read-out: ATB-BMPA labeling, Strep/Protein normalized to 100% Control, 10µM WU-1, individual samples)?
Answer: 39.8%
